Measurements: patent US20060105974A1, “Conjugates of photosensitizers and oligonucleotides for selective photochemiotherapy” (priority 2002, published 2006)
{Ce6} = chlorin e6 photosensitizer conjugate

Tests used:
[1] = tested on: GEO human colon cancer cells; assay: MTT cell viability assay after oligonucleotide incubation with or without irradiation; assay type: cell-based; conditions: one day after incubation, no irradiation
Protocol: To test the possibility of inhibiting cell growth by targeting the EGFR mRNA with Ω-sensitizers, mixed backbone oligonucleotides similar to those described in Example 1 were prepared, using methods described in Example 5. The sequences tested were:
GEO human colon cancer cells known to express approximately about 40000 functional EGFRs were purchased from ATCC (Rockville, Md., USA) and grown as described. Culture was performed in the presence of 10% fetal calf serum (FCS) and penicillin/streptomycin at 37° C. and 6% CO2 in a humid environment. For measurement purposes, the cells were subcultured in 48-well dishes (Costar 3548, Integra Biosiences, Cambridge, Mass., USA) to give 10^5 cells/well 72 hours prior to incubation with the oligonucleotides. […]
The cell viability was tested by means of an MTT assay. This technique allows quantification of cell survival after cytotoxic insult by testing the enzymatic acitivity of the mitochondria. […] The optical density of the product was quantified by its absorption at 540 nm using a 96-well ELISA plate reader (iEMS Reader MF, Labsystems, USA). […] The absorption of each residue was determined at 540 nm using the plate reader. The absorbance readings from treated cells was divided by the absorbance readings from the control cells in order to calculate the fraction of surviving cells.

[2] = tested on: target sequence (mam gene sequence); assay: Ω-sensitizer-induced photo-oxidation of DHR123 as a function of target concentration; assay type: biochemical; conditions: 10 J/cm^2
Source text: In order to test the possibility of using nano particles as the quenching moiety, oligonucleotides labeled with a photosensitive moiety at the 3′ terminus, where labeled at the 5′ terminus with amino modified gold nanoparticles. The mam gene sequence S′-CGGATGAAACTCTGAGCAATGTCTGCAGTTCTGTGAGCCAAAG-3′ (GeneBank accession No. AF015224) was coupled to the complementary stem sequences CCA AGC and GCT TGG at its 5′ and 3′ termini, respectively. The sequence was constructed using fully automated DNA synthesis as described in Example 1. The 3′ end contained an amino group, while the 5′ end was equipped with a six carbon spacer thiol group protected by a trityl moiety (Glen Research, Sterling, Va.) using standard methods. Following cleavage with 28% ammonium hydroxide, oligonucleotides were washed and purified as described above. The 3′ end photosensitive moiety labeled oligonucleotide was prepared and purified using the NHS ester of pheophorbide a as described in Example 1. Then the trityl protection group was removed by adding 0.15M silver nitrate solution to the labeled oligonucleotide for 1 hour. To this mixture 0.15M dithiothreitol (DTT) was added for 10 minutes. After spinning at 10000 rpm the supernatant was transferred to another tube. 400 pmol of this oligonucleotide were then suspended in 180 μl of water and immediately reacted with 6 nmol of monomaleimido gold particles (Ø=1.4 nm) (Nanoprobes) in aqueous 20 mM NaH2PO4, 150 mM NaCl, 1 mM ethylenediamine […] (EDTA) Buffer, pH 6.4, containing 10% isopropanol at 4° C. for 24 hours.
To the solution containing the Ω-sensitizer, 5′ (gold particle)-S—(CH2)6— CCAAGCCGGATGAAACTCTGAGCAATGTCTGCAGTTCTGTGAGCCAAAGCTTGG-(pheophorbide a)-3′, target and one base pair mismatch oligonucleotides were added at different concentrations. After adding appropriate quantities of DHR123 (see Example 1), the solutions were irradiated at 405 nm with electromagnetic radiation doses of 10 J/cm^2 and the fluorescence of rhodamine 123 was measured as described above as a function of the target concentration.

[3] = tested on: sense oligonucleotides; assay: Photo-oxidation of DHR123 to RH123 by Ω-sensitizers with sense and mismatch oligonucleotides; assay type: biochemical; conditions: irradiation 405±5 nm; for photochemically induced oxidation of DHR123: in the presence of the sense oligonucleotide; for reduction of oxidation capacity (photo-oxidation of DHR123), one base pair mismatch versus sense oligonucleotide / reduction of oxidation capacity (photo-oxidation of DHR123), two base pair mismatches versus sense oligonucleotide: RH123 fluorescence at 529 nm; for reduction of oxidation capacity (photo-oxidation of DHR123), two base pair mismatches versus sense oligonucleotide: two base pair mismatch sense oligonucleotide
Protocol: (§1) The selective photosensitizing action of the different Ω-sensitizers described in Example 1 was tested in vitro against sense oligonucleotides, and sense oligonucleotides having one and two base mismatches, respectively. For this purpose oligonucleotides with sequences 5′-CAAAGGGAGGAAACCTAGCA-3′ (sense), 5′-CAAAGGGAGGTAACCTAGCA-3′ (sense 1 bp mismatch), and 5′-CAAAGGGAAGTAACCTAGCA-3′ (sense 2 bp mismatch) were synthesized using standard automated phosphoramidite chemistry. Oligonucleotides were dissolved in 2 ml of a solution containing 10 mM Tris-HCl and 2 mM MgCl2 to give a final concentration of 0.8 μM in a quartz cuvette. To this solution 1 ml Dihydrorhodamine 123 (DHR123) (Molecular Probes, Eugene, USA) (40 μM) dissolved in 10 mM Tris-HCl was added. DHR123 is a non-fluorescent molecule that in the presence of oxygenating species undergoes oxygenation to give the fluorescent dye rhodamine 123 having an absorption maximum at 507 nm and a fluorescence maximum at 529 nm. 1 ml of Ω-sensitizer (800 nM) containing solution was added and the final solution was stored in the dark at 37° C. for 20 minutes. Then the solution was irradiated at 405±5 nm with electromagnetic radiation from a filtered Hg-Arc lamp. The RH123 fluorescence intensity at 529 nm was measured every 60 seconds using a Perkin Elmer spectrofluorometer (Model LS50B, Perkin Elmer, Rotkreuz, CH)

[4] = tested on: sense oligonucleotide; assay: Intrinsic fluorescence emission of the Ω-sensitizer after excitation at 405 nm with sense and mismatch oligonucleotides; assay type: binding; conditions: excitation 405 nm; two base pair mismatch oligonucleotide versus sense oligonucleotide
Protocol: as §1, with “1 ml of Ω-sensitizer (800 nM) containing solution was added and the final solution was stored in the dark at 37° C. for 20 minutes. Then the solution was irradiated at 405±5 nm with electromagnetic radiation from a filtered Hg-Arc lamp.” left out
Furthermore, the intrinsic fluorescence of the pheophorbide a labeled Ω-sensitizer was used to further underline the selectivity of these new photochemotherapeutic agents.

## 5′ (chlorin e6) -GC*G A*CT GA*C TGC CA*A C*TA TG*A* ACA T*C*G C-(chlorin e6)3′ [b)]
[1]
  cell viability (mitochondrial activity, MTT) in the dark: only slightly reduced

## 5′ (gold particle)-S—(CH2)6— CCAAGCCGGATGAAACTCTGAGCAATGTCTGCAGTTCTGTGAGCCAAAGCTTGG-(pheophorbide a)-3′ (CCAAGCCGGATGAAACTCTGAGCAATGTCTGCAGTTCTGTGAGCCAAAGCTTGG; hairpin, 5' gold particle via hexyl thiol, 3' pheophorbide a, partial phosphorothioate, further chemistry not given here)
[2]; 405 nm
  concentrations of the one base pair mismatched oligonucleotide at which photodynamic action can be observed: only very high concentrations
[2]; irradiated at 405 nm, RH123 fluorescence at 529 nm
  concentration of the target sequence at which the RH123 fluorescence intensity reaches its maximum: about 0.5 μM
[2]; one base pair mismatched oligonucleotide at about 0.5 μM, 405 nm
  RH123 fluorescence with oligonucleotide not complementary to the TCS: no fluorescence is detectable

## 5′-(chlorin)-GCGATGCTAGGTTTCCTCCCTTTGTCGC-(chlorin)-3′ (GCGATGCTAGGTTTCCTCCCTTTGTCGC; DNA, linkages osossooooossooooooooossssso (s phosphorothioate, o phosphodiester), 5' {Ce6}, 3' {Ce6}, methylation of C not given here) [chlorin e6 labeled Ω-sensitizer]
[3]
  photochemically induced oxidation of DHR123: most efficient
  reduction of oxidation capacity (photo-oxidation of DHR123), one base pair mismatch versus sense oligonucleotide: about 5 fold
  reduction of oxidation capacity (photo-oxidation of DHR123), two base pair mismatches versus sense oligonucleotide: ~20 fold

## 5′-(pheo a)-GCGATGCTAGGTTTCCTCCCTTTGTCGC-(pheo a)-3′ (GCGATGCTAGGTTTCCTCCCTTTGTCGC; pheophorbide a at both ends, partial phosphorothioate, pattern not given here) [pheophorbide a labeled Ω-sensitizer]
[3]
  photochemically induced oxidation of DHR123: most efficient
  reduction of oxidation capacity (photo-oxidation of DHR123), one base pair mismatch versus sense oligonucleotide: about 5 fold
  reduction of oxidation capacity (photo-oxidation of DHR123), two base pair mismatches versus sense oligonucleotide: ~20 fold
[3]; fluorescence at 529 nm
  RH123 fluorescence intensities achieved, compared with the chlorin e6 labeled Ω-sensitizer: higher fluorescence intensities
[4]
  fluorescence of the photosensitiser pheophorbide a (intrinsic fluorescence of the Ω-sensitizer): significant reduction
